For four molecules, IC50 and inhibition results are on record in ChEMBL document CHEMBL1131864, “Effects of sesquiterpenes and triterpenes from the rhizome of Alisma orientale on nitric oxide production in lipopolysaccharide-activated macrophages: absolute stereostructures of alismaketones-B 23-acetate and -C 23-acetate” (Bioorg Med Chem Lett, 1999).

By IC50 is commonly meant the midpoint of a concentration-inhibition curve. One may read the inhibition as the relative decrease from the control value, in per cent.

Holding throughout (format): functional
The species named for experiment [1] is Mus musculus. The experiment can be described thus: Concentration required for inhibition of nitric oxide production in LPS-activated mouse macrophages.
Experiment [2] is filed under the species Mus musculus. The experiment is described as follows: Inhibition of nitric oxide production in LPS-activated mouse macrophages at a concentration of 1 uM.
The species entered for experiment [3] is Mus musculus. The experiment is described as follows: Inhibition of nitric oxide production in LPS-activated mouse macrophages at a concentration of 10 uM.
The species entered for experiment [4] is Mus musculus. The experiment can be described thus: Inhibition of nitric oxide production in LPS-activated mouse macrophages at a concentration of 100 uM.
Experiment [5] is filed under the species Mus musculus. The experiment is described as follows: Inhibition of nitric oxide production in LPS-activated mouse macrophages at a concentration of 3 uM.
The species named for experiment [6] is Mus musculus. The experiment can be described thus: Inhibition of nitric oxide production in LPS-activated mouse macrophages at a concentration of 30 uM.

Molecules are shown by their SMILES.

`CC(=O)O[C@@H](C[C@@H](C)C1=C2[C@H](O)[C@H](O)C3[C@@]4(C)CCC(=O)C(C)(C)C4CC[C@]3(C)[C@@]2(C)CC1=O)[C@H]1OC1(C)C` (some centres undefined) returned an IC50 in the experiment listed under Mus musculus [1] of 9.3 µM. Also, the inhibition at 1 µM in the experiment listed under Mus musculus [2] worked out at 19%. Moreover, the inhibition at 10 µM in the experiment filed under Mus musculus [3] amounted to 50.8%. In the experiment filed under Mus musculus [4], the inhibition at 100 µM was determined as 104%. Besides, in the experiment filed under Mus musculus [5], the inhibition at 3 µM was determined as 29.7%. In addition, the inhibition at 30 µM in the experiment filed under Mus musculus [6] turned out to be 86.3%.

With `CC(=O)O[C@@H](C[C@@H](C)C1=C2C[C@H](O)C3[C@@]4(C)CCC(=O)C(C)(C)C4CC[C@]3(C)[C@@]2(C)CC1=O)[C@H]1OC1(C)C` (some centres undefined), the IC50 in the experiment filed under Mus musculus [1] was found to be 42 µM. Moreover, the inhibition at 1 µM in the experiment listed under Mus musculus [2] was determined as 2.9%. In addition, in the experiment filed under Mus musculus [3], the inhibition at 10 µM was determined as 21.1%. The inhibition at 100 µM in the experiment filed under Mus musculus [4] was determined as 67.3%. For the same molecule, the inhibition at 3 µM in the experiment filed under Mus musculus [5] worked out at 13.3%. Moreover, the inhibition at 30 µM in the experiment filed under Mus musculus [6] worked out at 43.8%.

As to `C[C@H](C[C@H](O)[C@H]1OC1(C)C)C1=C2C[C@H](O)C3[C@@]4(C)CCC(=O)C(C)(C)C4CC[C@]3(C)[C@@]2(C)CC1` (some centres undefined), the IC50 in the experiment filed under Mus musculus [1] is above 10 µM. Moreover, the inhibition at 1 µM in the experiment filed under Mus musculus [2] stood at 13.2%. For the same molecule, the inhibition at 10 µM in the experiment filed under Mus musculus [3] is 36.3%. The inhibition at 100 µM in the experiment filed under Mus musculus [4] amounted to 108%. In addition, the inhibition at 3 µM in the experiment listed under Mus musculus [5] was determined as 21.3%. For the same molecule, the inhibition at 30 µM in the experiment listed under Mus musculus [6] worked out at 109%.

Turning to `CC(=O)O[C@@H](C[C@@H](C)C1=C2C[C@H](O)C3[C@@]4(C)CCC(=O)C(C)(C)C4CC[C@]3(C)[C@@]2(C)CC1)[C@H]1OC1(C)C` (some centres undefined), in the experiment filed under Mus musculus [1], the 50% inhibitory concentration (IC50) is above 10 µM. The inhibition at 1 µM in the experiment filed under Mus musculus [2] came out at 0%. Moreover, the inhibition at 10 µM in the experiment listed under Mus musculus [3] amounted to 29.7%. Besides, the inhibition at 100 µM in the experiment listed under Mus musculus [4] stood at 105%. Further, the inhibition at 3 µM in the experiment filed under Mus musculus [5] is 13.4%. The inhibition at 30 µM in the experiment filed under Mus musculus [6] is 106%.
